Results on 6 compounds are retold here after paper PMC4997821, “The Lantibiotic NAI-107 Efficiently Rescues Drosophila melanogaster from Infection with Methicillin-Resistant Staphylococcus aureus USA300” (Antimicrobial Agents and Chemotherapy, 2016).

SMILES strings stand for the structures. Values after ≈ are worked out from the molar mass of the structure shown. Counter-ions that a name gives are not always drawn. Like-named read-outs stand apart in the source and are kept apart here. Residues, ends and D or L forms follow the SMILES beside them.

The test system of data set [1] is S. aureus 8325-4. The data set can be described thus: microbe, parasite or virus in culture. Type of data set: cell-based, Staphylococcus aureus. The protocol: (§1) S. aureus strains 8325-4 ([35]) and USA300 ([36]) were used as indicated for the individual experiments. Bacterial cultures were grown in cation-adjusted Mueller-Hinton broth (MHB-II) at the indicated temperature.
(§2) MICs of all tested compounds were determined according to protocols using broth microdilution methodology ([46]), with minor modifications. S. aureus was grown in 10 ml MHB-II overnight at 37°C with shaking and then diluted 1:100 in fresh MHB-II and grown to an OD600 of 0.2 to 0.4. Cultures were then diluted 1:10 and grown to an OD600 of 0.2 to 0.4. These steps were performed to ensure balanced exponentially growing cultures as explained above. Finally, cultures were diluted to 1 × 10^6 CFU ml^−1 and further diluted 1:1 in microtiter plates in MHB-II with drug, leading to a final inoculum of 5 × 10^5 CFU ml^−1. MICs were determined in triplicate, and if more than one value was found, the highest was set as the MIC to keep the calculations conservative.

Data set [2] deals with Drosophila melanogaster. Put plainly: Survival of uninfected control flies injected with VEH and drug. Type of data set: in vivo. The protocol: Injection assays were performed as previously described ([33]) by using a Nanoject-II microinjecter, but with minor modifications in the preparation of bacterial inoculums to obtain balanced cultures, as explained above. Flies were reared on standard Bloomington formulation at 25°C under a 12-h–12-h light-dark cycle and constant humidity. Adult Oregon R male flies (4 to 7 days old) were used for all injection experiments. Initial experiments with strain 8325-4 were performed in duplicate, with groups of 25 to 30 animals in each experiment. For USA300, experiments were performed in triplicate, except for the nisin experiment, which was done only in duplicate. The inoculum was prepared by resuspending cells in 10 mM MgSO4 vehicle (VEH) to an OD600 of 0.06 and was kept on ice, giving an inoculum dose of 100 to 450 CFU (8325-4) or 200 to 700 CFU (USA300) in the flies after injection of 18.4 nl. Bacterial and VEH injections were administered in the soft tissue surrounding the front legs, and drug treatment was administered in the lower thorax at 3 h postinfection. After injection of bacteria, flies were kept at 29°C and monitored for 48 to 96 h to determine mortality. Drug delivery was performed at the concentrations indicated for individual experiments. Flies which died within 3 h postinjection were considered to have died from handling and were disregarded. It is important that when drug concentrations were calculated, we performed a rough approximation of the fluid content of a fly. Fly fluid content was measured by drying out 10 groups of 50 flies each and comparing dry weight to wet weight. […] For simplicity and because we assumed that the compounds would not be distributed to all fluids, we used 0.5 μl fluid as our measure for calculating drug concentrations in the flies. Further, we assumed a rapid distribution of the compound in the open circulatory system of Drosophila and a slow clearance of the compounds by Malpighian tubules. Therefore, drug concentrations are given as the highest concentrations obtained, in multiples of the MIC.
Plotting of data was performed using GraphPad Prism 5. All in vivo survival plots were created using Kaplan-Meier analysis of pooled data for repetitive experiments. Statistical analysis was carried out with the log rank (Mantel-Cox) test for comparison of survival curves. Experiments with P values of <0.05 were considered to be significant and are stated in Results. Statistical analysis was performed on the counts of CFU per fly for the different treatment groups by using one-way analysis of variance (ANOVA) (Kruskal-Wallis test) with Dunn's multiple-comparison test for comparison of individual groups. Relevant statistical results are stated in Results.

Data set [3] relates to Drosophila melanogaster. The data set can be described thus: Adverse behavioral response (paralysis) after injection. Conditions: flies injected with high concentrations (data not shown); uncoordinated movements, inability to walk or fly. In kind it is in vivo. The protocol: (§3) Injection assays were performed as previously described ([33]) by using a Nanoject-II microinjecter, but with minor modifications in the preparation of bacterial inoculums to obtain balanced cultures, as explained above. Flies were reared on standard Bloomington formulation at 25°C under a 12-h–12-h light-dark cycle and constant humidity. Adult Oregon R male flies (4 to 7 days old) were used for all injection experiments. Initial experiments with strain 8325-4 were performed in duplicate, with groups of 25 to 30 animals in each experiment. For USA300, experiments were performed in triplicate, except for the nisin experiment, which was done only in duplicate. The inoculum was prepared by resuspending cells in 10 mM MgSO4 vehicle (VEH) to an OD600 of 0.06 and was kept on ice, giving an inoculum dose of 100 to 450 CFU (8325-4) or 200 to 700 CFU (USA300) in the flies after injection of 18.4 nl. […] After injection of bacteria, flies were kept at 29°C and monitored for 48 to 96 h to determine mortality. […] It is important that when drug concentrations were calculated, we performed a rough approximation of the fluid content of a fly. Fly fluid content was measured by drying out 10 groups of 50 flies each and comparing dry weight to wet weight. […]

The subject of data set [4] is S. aureus 8325-4. Put plainly: Drosophila injection assay, survival of infected flies. Type of data set: in vivo, Drosophila melanogaster. As to conditions: >1,000× MIC, injection 3 h postinfection, 70-h period. The protocol: as §3
For data set [5], the system named is S. aureus USA300 (MRSA). Put plainly: MIC testing, broth microdilution. As to conditions: Staphylococcus aureus. In kind it is cell-based. The protocol:
as §1, §2

Data set [6] deals with MRSA USA300. The data set can be described thus: Drosophila injection assay, survival of infected flies. In kind it is in vivo, Drosophila melanogaster. Conditions: 10× MIC, 3 h postinfection, 96-h period. The protocol: as §3
For data set [7], the system named is S. aureus USA300. Put plainly: Bacterial titers (CFU per fly) after treatment. Type of data set: in vivo, Drosophila melanogaster. Conditions: USA300-infected flies, treatment 3 h postinfection. The protocol: The growth rates of S. aureus strains were examined at 37°C in vitro to determine the growth period required to obtain balanced cultures, here defined as cultures grown exponentially for no fewer than 6 generations. Prior to injection of bacteria into the in vivo fly model, the inoculums were prepared as balanced cultures grown at 37°C. Since flies used for in vivo infections were kept at 29°C, the bacterial in vitro generation time was also determined at this temperature. In vitro growth rates were defined for growth in MHB-II by measurements of the optical density at 600 nm (OD600) at 10-min intervals. Furthermore, we determined the in vivo generation time based on CFU per animal by counting the CFU at various time points by homogenizing flies infected with bacteria and plating the homogenates on mannitol salt agar (MSA). This was performed in triplicate experiments; 3 individual flies were crushed in phosphate-buffered saline (PBS), and 10× dilution series were prepared, from which 10 μl each was spot plated on MSA in triplicate. The mean value for each experiment was determined as the number of CFU per fly and plotted. […] It should also be noted that drug treatment was performed at 3 h postinfection and that the number of CFU per fly for this time point was determined prior to treatment. […]

Where [8] appears, read: broth microdilution, MHB-II, final inoculum 5 × 10^5 CFU ml^−1, triplicate, highest value set as MIC.
Setting [9] is: calculated from MIC in μg ml^−1 with the mol wt of the table, read-out: MIC (μM) 8325-4.
Setting [10] is: at the concentrations tested, not given.
Setting [11] is: 8325-4, read-out: MIC (μM) 8325-4.

In the case of `CC(C)C[C@H](NC(=O)[C@H](Cc1c[nH]c2ccccc12)NC(=O)[C@H](CCCNC(=N)N)NC(=O)[C@H](Cc1c[nH]c2ccccc12)NC(=O)[C@H](Cc1c[nH]c2ccccc12)NC(=O)[C@H](CCCCN)NC(=O)[C@H](CCCCN)NC(=O)[C@H](Cc1c[nH]c2ccccc12)NC(=O)[C@@H](N)CCCNC(=N)N)C(N)=O` [GN-4] (H-RWKKWWRWL-NH2), the “MIC (μg ml^−1) 8325-4” value in data set [1] (setting [8]) stood at 4 µg/mL (≈ 2.77 µM). For the same compound, the MIC in data set [1] (setting [9]) is listed as 2.77 µM. Also, the “Effect on survival of control animals” value in data set [2] (10× MIC in fly, compared with VEH-injected flies) is “no detrimental effects on survival of flies”. In addition, the “Adverse behavioral response that may indicate neurotoxicity” value in data set [3] is listed as “partially paralyzed for up to 10 h postinjection”.

`CC[C@H](C)[C@H](NC(=O)[C@H](Cc1c[nH]c2ccccc12)NC(=O)[C@H](CCCNC(=N)N)NC(=O)[C@H](Cc1c[nH]c2ccccc12)NC(=O)[C@H](Cc1c[nH]c2ccccc12)NC(=O)[C@H](CCCNC(=N)N)NC(=O)[C@H](CCCCN)NC(=O)[C@H](Cc1c[nH]c2ccccc12)NC(=O)[C@@H](N)CCCNC(=N)N)C(N)=O` [GN-2] (H-RWKRWWRWI-NH2): the “MIC (μg ml^−1) 8325-4” value in data set [1] (setting [8]) was 8 µg/mL (≈ 5.44 µM). In addition, in data set [1] (setting [9]), the MIC was 5.43 µM. Besides, the “Adverse behavioral response that may indicate neurotoxicity” value in data set [3] is “partially paralyzed for up to 10 h postinjection”.

With `CC1(C)S[C@@H]2[C@H](NC(=O)[C@H](N)c3ccccc3)C(=O)N2[C@H]1C(=O)O` [Ampicillin, Ampicillin sodium salt, reference compound], the MIC in data set [1] (Staphylococcus aureus, 83254, broth microdilution, MHB-II, final inoculum 5 × 10^5 CFU ml^−1, triplicate, highest value set as MIC, read-out: MIC (μg ml^−1) 8325-4) is 0.01 µg/mL; in data set [1] (Staphylococcus aureus, 83254, calculated from MIC in μg ml^−1 with the mol wt of the table, read-out: MIC (μM) 8325-4), 2.86 µM. Also, the “Effect on survival of 8325-4-infected flies” value in data set [4] is recorded as “efficiently promoted survival”. The “Effect on survival of control animals” value in data set [2] (>1,000× MIC, 70-h period) was “no lethal effects on control animals”.

Regarding `CN[C@H](CC(C)C)C(=O)N[C@H]1C(=O)N[C@@H](CC(N)=O)C(=O)N[C@H]2C(=O)N[C@H]3C(=O)N[C@H](C(=O)N[C@H](C(=O)O)c4cc(O)cc(O)c4-c4cc3ccc4O)[C@H](O)c3ccc(c(Cl)c3)Oc3cc2cc(c3O[C@@H]2O[C@H](CO)[C@@H](O)[C@H](O)[C@H]2O[C@H]2C[C@](C)(N)[C@H](O)[C@H](C)O2)Oc2ccc(cc2Cl)[C@H]1O` [Vancomycin, vancomycin hydrochloride], the results for the MIC in data set [5] (read-out: MIC (μM) USA300) and in data set [5] (read-out: MIC (μg ml^−1) USA300) were 1.38 µM and 2 µg/mL, respectively. The “Survival of USA300-infected animals compared with NAI-107 at 100× MIC” value in data set [6] is recorded as “equivalent”. Moreover, in data set [2] (setting [10]), the “Effect on survival of control animals” value is listed as “no adverse effect on survival of control animals”. Also, in data set [7], the “Bacterial load compared to that with nisin treatment after 24 h” value is “significantly reduced the bacterial load”. Also, the “Proliferation of bacteria inside the animals” value in data set [7] (CFU per fly at 0, 3, 12, 24 h on MSA) is recorded as “clearly disrupted the proliferation of bacteria”.

Regarding `CC(C)C[C@H](NC(=O)[C@H](Cc1c[nH]c2ccccc12)NC(=O)[C@H](Cc1c[nH]c2ccccc12)NC(=O)[C@H](CCCCN)NC(=O)[C@H](Cc1c[nH]c2ccccc12)NC(=O)[C@H](CCCNC(=N)N)NC(=O)[C@H](CCCNC(=N)N)NC(=O)[C@H](Cc1c[nH]c2ccccc12)NC(=O)[C@@H](N)CCCNC(=N)N)C(N)=O` [HHC-9] (H-RWRRWKWWL-NH2), in data set [1] (8325-4), the “MIC (μg ml^−1) 8325-4” value turned out to be 4 µg/mL (≈ 2.72 µM). In data set [1] (setting [11]), the MIC amounted to 2.71 µM. Besides, the “Effect on survival of control animals” value in data set [2] (setting [10]) is “no obvious detrimental effects on survival”.

Consider `N=C(N)NCCC[C@H](NC(=O)[C@H](CCCNC(=N)N)NC(=O)[C@H](Cc1c[nH]c2ccccc12)NC(=O)[C@H](Cc1c[nH]c2ccccc12)NC(=O)[C@H](CCCCN)NC(=O)[C@H](Cc1c[nH]c2ccccc12)NC(=O)[C@H](Cc1c[nH]c2ccccc12)NC(=O)[C@H](CCCNC(=N)N)NC(=O)[C@@H](N)CCCCN)C(N)=O` [HHC-36] (H-KRWWKWWRR-NH2), for which the “MIC (μg ml^−1) 8325-4” value in data set [1] (8325-4) was found to be 8 µg/mL (≈ 5.38 µM). The MIC in data set [1] (setting [11]) was found to be 5.38 µM. Moreover, the “Effect on survival of control animals” value in data set [2] (setting [10]) is recorded as “no obvious detrimental effects on survival”.
